Test results taken from patent publication US10420815B2, “Combinational therapy for synergistic inhibition of gram-positive and gram-negative bacteria” (priority 2015, dated 2019).
Several values for one entry are separate records, joined by “and”; a condition that tells them apart may be missing. Identical values can stand only once. Entries after “also recorded” stand apart in the source; their conditions may differ. Like-named read-outs stand apart in the source and are kept apart here. One block for each compound: values may come before it.

Key:
Type in all cases: cell-based, Staphylococcus aureus
MRSA (ATCC 33593) = assay: microbe, parasite or virus in culture
Text: (§1) MRSA (ATCC 33593), MSSA (ATCC 29213), and MRSA USA300 (BAA-1680) strains were purchased from the American Type Culture Collection (ATCC; Manassas, Va.). Eight clinical isolates of MRSA were obtained from the Culture Collection of Antimicrobial Resistant Microbes, Korea National Research Resource Center (KNRRC). Salmonella enterica Typhimurium LT2 was purchased from ATCC, and Escherichia coli O157:H7 is a kind gift from Dr. Sangryeol Ryu (Seoul National University, South Korea). All S. aureus strains were maintained in Trypticase Soy (TS) medium, and E. coli O157:H7 and Salmonella were routinely grown aerobically on Luria-Bertani (LB) media at 37° C. For measuring growth kinetics, an overnight culture of MRSA in Mueller-Hinton (MH) broth was diluted 100-fold in fresh MH broth and cultured until early exponential phase. The culture (200 μl) was transferred to each well of a sterile 96-well plate and incubated at 37° C. with bacitracin alone, alkyl gallate alone, and combination of bacitracin/alkyl gallates at various concentrations. The optical density at 600 nm (OD600) was measured every hour with FLUOstar® Omega (BMG Labtech, Germany).
(§2) Broth micro dilution assays were performed to determine the minimum inhibitory concentrations (MIC) accordance to the M7-A7 protocol of the Clinical and Laboratory Standards Institute (CLSI) guidelines^28. The susceptibility test was carried out with an initial bacterial inoculum of 1.5×10^5 CFU ml^−1. Alkyl gallates and bacitracin were serially diluted in a polystyrene 96 well plate and the plate was incubated at 37° C. for 24 h. Minimum bactericidal concentration (MBC) was determined by spotting 10 μl of cultures from MIC tests onto MH agar and incubated aerobically at 37° C.
(§3) MICs were determined with MRSA and methicillin-sensitive S. aureus (MSSA) using a broth dilution method as described above.
(§4) MRSA and MSSA were cultured overnight with antioxidants (0.5 μg/ml) and bacitracin at various concentrations and 10 μL of the culture was spotted on MH agar plates and incubated aerobically at 37° C. to observe the bacterial viability. The results in FIGS. 9A, 9B, 9C and 9D (photographs of plates) show the Minimal Bactericidal Concentrations (MBCs) for indicated antioxidants. Bacitracin killed MRSA and MSSA at concentrations greater than or equal to 2 μg/mi.

[1] = system: MRSA (normal MRSA strain, not USA300); assay: MRSA growth (optical density) with bacitracin and phenolic antioxidants; details: for growth of MRSA with bacitracin plus antioxidant: bacitracin 0.002 μg/mL, antioxidant 0.5 μg/mL, FIG. 6; for optical density of MRSA after 18 h culture: inhibition of growth in combination with bacitracin: bacitracin 0.002 μg/ml (ca. 0.0002 U), antioxidant 0.5 μg/ml, FIG. 8
Text: as §1
MRSA were grown with bacitracin (0.002 μg/mL) with antioxidant (as shown) at 0.5 μg/mL.
FIG. 7A is growth with no added bacitracin or lauryl gallate.
The optical density of MRSA was measured after 18 h culture with bacitracin (0.002 μg/ml) and antioxidants (as indicated at 0.5 μg/ml). Also measured were controls with no additions, with bacitracin alone and with antioxidant alone. FIGS. 8A, 8B, 8C and 8D are graphs illustrating the results.

MSSA (ATCC 29213) = assay: MIC (broth dilution) and MBC (spotting) of phenolic antioxidants and bacitracin; details: for MIC: antioxidant alone
Text: as §1, §2, §3, §4

MRSA 3865 = assay: microbe, parasite or virus in culture; details: Staphylococcus aureus
Text: as §1, §2

MRSA 3903 = assay: microbe, parasite or virus in culture; details: Staphylococcus aureus
Text: as §1, §2

MRSA 3823 = assay: microbe, parasite or virus in culture; details: Staphylococcus aureus
Text: as §1, §2

MRSA 3A585 = assay: microbe, parasite or virus in culture; details: Staphylococcus aureus
Text: as §1, §2

MRSA 3795 = assay: microbe, parasite or virus in culture; details: Staphylococcus aureus
Text: as §1, §2

MRSA 3876 = assay: microbe, parasite or virus in culture; details: Staphylococcus aureus
Text: as §1, §2

MRSA 3799 = assay: microbe, parasite or virus in culture; details: Staphylococcus aureus
Text: as §1, §2

MRSA 3095 = assay: microbe, parasite or virus in culture; details: Staphylococcus aureus
Text: as §1, §2

MRSA USA300 (BAA-1680) = assay: microbe, parasite or virus in culture; details: agent alone
Text: as §1, §2

[2] = Staphylococcus aureus, MRSA, antioxidant alone, read-out: MIC
[3] = Staphylococcus aureus, read-out: MIC
[4] = MRSA 3865 (human/skin), read-out: MIC
[5] = MRSA 3903 (human/skin), read-out: MIC
[6] = MRSA 3823 (human/nose), read-out: MIC
[7] = MRSA 3A585 (human/blood), read-out: MIC
[8] = MRSA 3795 (human/nose), read-out: MIC
[9] = MRSA 3876 (human/skin), read-out: MIC
[10] = MRSA 3799 (human/nose), read-out: MIC

MIC (MRSA (ATCC 33593); [2]): > 1020 µg/mL
MIC (MSSA (ATCC 29213); [3]): 1020 µg/mL
MIC (MSSA (ATCC 29213)): >1024 µg/mL
Compound: Cc1cc(C(C)(C)C)c(O)c(C(C)(C)C)c1 [Butylated hydroxytoluene, butylated hydroxytoluene]
synergistic killing with bacitracin (MRSA (ATCC 33593); MRSA, antioxidant 0.5 μg/ml): did not generate any synergistic killing
growth of MRSA with bacitracin plus antioxidant [1]: did not show any synergistic effects with bacitracin
optical density of MRSA after 18 h culture: inhibition of growth in combination with bacitracin ([1]; listed as BHT): no synergistic inhibition of growth; also recorded: did not show any synergistic antimicrobial effects
synergistic killing with bacitracin (MSSA (ATCC 29213); antioxidant 0.5 μg/ml): did not generate any synergistic killing

MIC (MRSA 3865; [4]): ≥ 128 µg/mL
MIC (MRSA 3903; [5]): ≥ 128 µg/mL
MIC (MRSA 3823; [6]): ≥ 128 µg/mL
MIC (MRSA 3A585; [7]): ≤ 0.25 µg/mL
MIC (MRSA 3795; [8]): ≥ 128 µg/mL
MIC (MRSA 3876; [9]): < 0.12 µg/mL
MIC (MRSA 3799; [10]): ≥ 128 µg/mL
Compound: O=C(N[C@H](CO)[C@H](O)c1ccc([N+](=O)[O-])cc1)C(Cl)Cl [CL, chloramphenicol]

MIC (MRSA (ATCC 33593); [2]): > 1020 µg/mL
MIC (MSSA (ATCC 29213); [3]): > 1020 µg/mL
Compound: O=C(O)/C=C/c1ccc(O)c(O)c1 [Caffeic acid, caffeic acid]

Compound: Oc1cc(O)c2c(c1)OC(c1ccc(O)c(O)c1)C(O)C2 (stereo not drawn) [Catechin(+), catechin]
MIC (MRSA (ATCC 33593); MRSA, antioxidant alone): >1024 µg/mL
MIC (MSSA (ATCC 29213)): >1024 µg/mL

MIC (MRSA (ATCC 33593); [2]): > 1020 µg/mL
MIC (MSSA (ATCC 29213); [3]): > 1020 µg/mL
Compound: O=c1cc(-c2ccccc2)oc2cc(O)cc(O)c12 [Chrysin, chrysin]

MIC (MRSA (ATCC 33593); [2]): > 1020 µg/mL
MIC (MSSA (ATCC 29213); [3]): > 1020 µg/mL
Compound: O=C(O)C=Cc1ccccc1 [Cinnamic acid, cinnamic acid]

MIC (MRSA 3865; [4]): ≥ 128 µg/mL
MIC (MRSA 3903; [5]): ≥ 128 µg/mL
MIC (MRSA 3823; [6]): ≥ 128 µg/mL
MIC (MRSA 3095; MRSA 3095 (human/skin), read-out: MIC): ≥ 128 µg/mL
MIC (MRSA 3A585; [7]): ≥ 4 µg/mL
MIC (MRSA 3795; [8]): ≥ 128 µg/mL
MIC (MRSA 3876; [9]): ≥ 128 µg/mL
MIC (MRSA 3799; [10]): ≥ 128 µg/mL
Compound: CC[C@H]1OC(=O)[C@H](C)[C@@H](O[C@H]2C[C@@](C)(OC)[C@@H](O)[C@H](C)O2)[C@H](C)[C@@H](O[C@@H]2O[C@H](C)C[C@H](N(C)C)[C@H]2O)[C@](C)(O)C[C@@H](C)C(=O)[C@H](C)[C@@H](O)[C@]1(C)O [ERY, erythromycin]

MIC (MRSA (ATCC 33593); [2]): > 1020 µg/mL
MIC (MSSA (ATCC 29213); [3]): > 1020 µg/mL
Compound: Oc1cc(O)c2c(c1)O[C@H](c1ccc(O)c(O)c1)[C@H](O)C2 [Epicatechin, epicatechin]

Compound: O=C(O[C@@H]1Cc2c(O)cc(O)cc2O[C@@H]1c1cc(O)c(O)c(O)c1)c1cc(O)c(O)c(O)c1 [Epigallocatechin gallate, epigallocatechin gallate]
fold decrease of bacitracin MBC by antioxidant (MRSA (ATCC 33593); MRSA, antioxidant 0.5 μg/ml, compared to bacitracin alone): > 32 fold
MIC (MRSA (ATCC 33593); MRSA, antioxidant alone): 512 µg/mL and 256 µg/mL
growth of MRSA with bacitracin plus antioxidant [1]: significantly inhibited the growth of MRSA
optical density of MRSA after 18 h culture: inhibition of growth in combination with bacitracin [1]: significantly inhibited MRSA
fold decrease of bacitracin MBC by antioxidant (MSSA (ATCC 29213); antioxidant 0.5 μg/ml, compared to bacitracin alone): 16 fold
MIC (MSSA (ATCC 29213)): 128 µg/mL and 64 µg/mL

Compound: O=C(O)c1cc(O)c(O)c(O)c1 [Gallic acid, gallic acid]
MIC (MRSA (ATCC 33593); Staphylococcus aureus): > 1020 µg/mL
MBC (MRSA USA300 (BAA-1680)): 256 µg/mL
MIC (MRSA USA300 (BAA-1680)): 128 µg/mL
MIC (MSSA (ATCC 29213); [3]): > 1020 µg/mL
MIC (MRSA 3865; MRSA): > 1020 µg/mL
MIC (MRSA 3903; MRSA): > 1020 µg/mL
MIC (MRSA 3823; MRSA): > 1020 µg/mL
MIC (MRSA 3095; MRSA): > 1020 µg/mL
MIC (MRSA 3A585; MRSA): > 1020 µg/mL
MIC (MRSA 3795; MRSA): > 1020 µg/mL
MIC (MRSA 3876; MRSA): > 1020 µg/mL
MIC (MRSA 3799; MRSA): > 1020 µg/mL

Compound: COc1ccc([C@@H]2CC(=O)c3c(O)cc(O[C@@H]4O[C@H](CO[C@@H]5O[C@@H](C)[C@H](O)[C@@H](O)[C@H]5O)[C@@H](O)[C@H](O)[C@H]4O)cc3O2)cc1O [Hesperedin, hesperidin]
MIC (MRSA (ATCC 33593); MRSA, antioxidant alone): >1024 µg/mL
MIC (MSSA (ATCC 29213)): >1024 µg/mL

MIC (MRSA (ATCC 33593); [2]): > 1020 µg/mL
MIC (MSSA (ATCC 29213); [3]): > 1020 µg/mL
Compound: O=c1c(O)c(-c2ccc(O)cc2O)oc2cc(O)cc(O)c12 [Morin, morin]
